Test results from ChEMBL document CHEMBL1201862, “PubChem BioAssay data set” (2004).
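Protocol summary: plate cells (96-well), add compound at 5 concentrations, incubate 48 h, interpolate endpoints linearly. At the GI50, growth is halved.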 The source made the active and inactive calls. Cut-off read from the data, not from the text of the source: active = GI50 up to about 1.1 µM and inactive = higher.

Assays:
Assay in all cases: inhibition of tumour cell growth, NCI panel, 48 h
SNB-19 = system: SNB-19
K562 = system: K562
CCRF-CEM = system: CCRF-CEM
HT-29 = system: HT-29
EKVX = system: EKVX
COLO 205 = system: COLO 205
Malme-3M = system: Malme-3M
UACC-257 = system: UACC-257
SK-MEL-5 = system: SK-MEL-5
CAKI-1 = system: CAKI-1
M14 = system: M14
TK-10 = system: TK-10
MOLT-4 = system: MOLT-4
UACC-62 = system: UACC-62
OVCAR-3 = system: OVCAR-3
SR = system: SR
SNB-75 = system: SNB-75
MCF7 = system: MCF7
SN12C = system: SN12C
KM-20L2 = system: KM-20L2

Measured: GI50

Cc1cccc(N2C(=O)C3c4[nH]c5ccc(C)cc5c4C4CCC(C(C)(C)C)CC4C3C2=O)c1 (centres undefined)
inactive: SNB-19 25.2 µM | K562 23.9 µM | CCRF-CEM 21.4 µM | HT-29 21.4 µM | EKVX 10.4 µM | COLO 205 17.4 µM | Malme-3M 24.3 µM | UACC-257 46.3 µM | SK-MEL-5 32.5 µM | CAKI-1 31.6 µM | M14 20.2 µM | TK-10 24.6 µM | MOLT-4 8.97 µM | UACC-62 23.3 µM | OVCAR-3 13.6 µM

CCCC[C@H]1[C@@H](OCOc2ccccc2)COC(=O)N1[C@H](C)c1ccccc1
inactive: SR 8.49 µM | SNB-19 21.3 µM | K562 7.18 µM | CCRF-CEM 16.8 µM | HT-29 > 34.2 µM | EKVX 25.4 µM | COLO 205 25.9 µM | Malme-3M 15.7 µM | SNB-75 10.8 µM | UACC-257 9.66 µM | SK-MEL-5 4.03 µM | CAKI-1 13.5 µM | M14 12.6 µM | MCF7 11.2 µM | SN12C 10.2 µM | TK-10 15.6 µM | MOLT-4 4.54 µM | UACC-62 10.3 µM | OVCAR-3 14.7 µM

C/N=C1\S/C(=N\c2ccc(N(C)C)cc2)N1C
inactive: SR 46.1 µM | SNB-19 42.2 µM | K562 29.7 µM | CCRF-CEM 36.1 µM | HT-29 28.2 µM | EKVX 25 µM | COLO 205 39.4 µM | Malme-3M 39.9 µM | SNB-75 19 µM | UACC-257 47.8 µM | SK-MEL-5 25.2 µM | M14 33.1 µM | SN12C 31 µM | TK-10 55.7 µM | MOLT-4 43 µM | UACC-62 33.5 µM | OVCAR-3 39.4 µM

O=C(O)C1CCCCN1C(=O)c1ccccc1 (centres undefined)
inactive: SR > 100 µM | SNB-19 > 100 µM | K562 > 100 µM | CCRF-CEM > 100 µM | HT-29 > 100 µM | EKVX > 100 µM | COLO 205 > 100 µM | Malme-3M > 100 µM | SNB-75 > 100 µM | UACC-257 > 100 µM | SK-MEL-5 > 100 µM | M14 > 100 µM | KM-20L2 > 100 µM | SN12C > 100 µM | TK-10 > 100 µM | MOLT-4 > 100 µM | UACC-62 > 100 µM | OVCAR-3 > 100 µM

CCOC(C)OC1CC(n2cc(C)c(=O)[nH]c2=O)OC1CO (centres undefined)
inactive: SR > 100 µM | SNB-19 > 100 µM | K562 > 100 µM | CCRF-CEM 82.6 µM | HT-29 > 100 µM | EKVX > 100 µM | COLO 205 > 100 µM | Malme-3M > 100 µM | UACC-257 > 100 µM | M14 > 100 µM | KM-20L2 > 100 µM | SN12C > 100 µM | TK-10 > 100 µM | MOLT-4 > 100 µM | OVCAR-3 > 100 µM

COc1cc(C(C)O)c(S(=O)(=O)CC(C)O)nn1 (centres undefined)
inactive: SR 43.6 µM | SNB-19 > 100 µM | K562 72.9 µM | CCRF-CEM > 100 µM | HT-29 > 100 µM | EKVX 75.5 µM | COLO 205 > 100 µM | Malme-3M > 100 µM | UACC-257 > 100 µM | SK-MEL-5 > 100 µM | CAKI-1 > 100 µM | M14 > 100 µM | MCF7 > 100 µM | SN12C > 100 µM | TK-10 > 100 µM | MOLT-4 77.4 µM | UACC-62 > 100 µM | OVCAR-3 > 100 µM

CCOC(=O)CCc1c(C)c2c(OC(C)=O)cc(OC(C)=O)cc2oc1=O
inactive: SNB-19 65.9 µM | HT-29 35.6 µM | EKVX 58.3 µM | COLO 205 > 100 µM | Malme-3M 20.7 µM | SNB-75 21.7 µM | UACC-257 38.9 µM | CAKI-1 > 100 µM | M14 43 µM | KM-20L2 > 100 µM | SN12C 28.4 µM | TK-10 > 100 µM | OVCAR-3 27.4 µM

COc1cccc(N2C(=O)C3c4[nH]c5ccc(C)cc5c4C4CCC(C(C)(C)C)CC4C3C2=O)c1 (centres undefined)
inactive: SR 2 µM | SNB-19 > 10 µM | K562 2.65 µM | CCRF-CEM 2.77 µM | HT-29 4.08 µM | EKVX 4.84 µM | COLO 205 7.16 µM | Malme-3M > 10 µM | SNB-75 2.51 µM | SK-MEL-5 7.67 µM | CAKI-1 9.84 µM | M14 8 µM | MCF7 2.99 µM | SN12C 3.15 µM | TK-10 > 10 µM | MOLT-4 1.97 µM | UACC-62 > 10 µM | OVCAR-3 5.46 µM

N#CCCC1(CCC#N)CCCCCCC(CCC#N)(CCC#N)C(O)C1O (centres undefined)
inactive: SR 65.3 µM | SNB-19 > 100 µM | K562 > 100 µM | HT-29 > 100 µM | COLO 205 41.9 µM | Malme-3M > 100 µM | SNB-75 > 100 µM | UACC-257 > 100 µM | SK-MEL-5 > 100 µM | CAKI-1 > 100 µM | M14 > 100 µM | MCF7 > 100 µM | SN12C 52.2 µM | TK-10 > 100 µM | OVCAR-3 > 100 µM

Cc1[nH]c(=O)[nH]c(=O)c1C(=O)N(CCO)Cc1ccccc1
inactive: SR > 100 µM | SNB-19 > 100 µM | K562 > 100 µM | CCRF-CEM > 100 µM | HT-29 > 100 µM | EKVX > 100 µM | COLO 205 22.3 µM | Malme-3M > 100 µM | UACC-257 34.7 µM | M14 > 100 µM | MCF7 > 100 µM | SN12C > 100 µM | TK-10 > 100 µM | MOLT-4 > 100 µM | UACC-62 > 100 µM | OVCAR-3 > 100 µM

CCOC(=O)C(O)(NC(=O)c1ccc(F)cc1)C(F)(F)F (centres undefined)
inactive: SR > 100 µM | SNB-19 > 100 µM | K562 > 100 µM | CCRF-CEM > 100 µM | HT-29 > 100 µM | EKVX > 100 µM | COLO 205 > 100 µM | Malme-3M > 100 µM | SNB-75 > 100 µM | UACC-257 > 100 µM | SK-MEL-5 > 100 µM | CAKI-1 > 100 µM | M14 > 100 µM | MCF7 > 100 µM | SN12C > 100 µM | TK-10 > 100 µM | MOLT-4 > 100 µM | UACC-62 > 100 µM | OVCAR-3 > 100 µM

CC1=C[C@]2(CC(C)C3C(CC4(C)C5CCC6C(C)(C)C(=O)CC[C@@]67C[C@@]57CC[C@]34C)O2)OC1=O (some centres undefined)
inactive: SR 3.82 µM | SNB-19 15.7 µM | K562 4.03 µM | CCRF-CEM > 100 µM | HT-29 9.31 µM | EKVX 44.8 µM | COLO 205 36.9 µM | Malme-3M 44.4 µM | SNB-75 16.8 µM | UACC-257 8.63 µM | SK-MEL-5 2.65 µM | CAKI-1 16.9 µM | M14 47.3 µM | SN12C 41.1 µM | TK-10 26 µM | MOLT-4 10.7 µM
